Reference: US20240190849A1, “AMINOPYRIMIDINE COMPOUNDS AND METHODS OF THEIR USE” (TYRA BIOSCIENCES, INC., priority 2021, published 2024)

Key:
[1] = system: KG-1 (Acute Myeloid Leukemia), FGFR1OP2-FGFR1 fusion; experiment: Cancer cell viability assay (Cell Titer-Glo), KG-1; type: cell-based; conditions: Homo sapiens, KG-1 cells, 72 hours
Source text: (§1) RT112/84, UM-UC-14, SNU-16 and KG-1 Cancer Cell Line Cell Viability Assays
(§2) To detect the change of intracellular ATP by Cell Titer-Glo@ and to evaluate the inhibitory effect of the compounds on cancer cell lines by determining the in vitro IC50 value of the compounds.
(§3) Cell Titer-Glo@ 2.0 Luminescent cell viability assay reagent was purchased from Promega (Madison, WI). RT112/84, SNU-16, and KG-1 cell lines were purchased from American Type Culture Collection (Manassas, VA). UM-UC-14 cell line was purchased from Sigma (St. Louis, MO). RT112/84, UM-UC-14, SNU-16, and KG-1 cells were cultured in RPMI1640 media supplemented with 10% fetal bovine serum. Cultures were maintained at 37° C. in a humidified atmosphere of 5% CO2 and 95% air.
(§4) Cell Viability Assay Procedure: Cells were plated in 96-well clear bottom/white plates (Corning #3903) at 10,000 cells/well in 100 μl of media, incubated overnight. The next day, test compound DMSO stock solutions were made at 10 mM and 2 μM final concentration. Compounds were then added to cells in a 9-dose, […] dilution series starting at 30 μM with an HP 300e Digital Dispenser (each dose was applied in triplicate). DMSO was backfilled to each well up to 301 nL total volume of test compound+DMSO, and a total of 301 nL DMSO was added to a control/no test compound well in triplicate. The cells in cell culture plates were incubated with the compounds at 37° C. and 5% CO2 for 72 hours. Then 50 μl of Cell Titer Glo 2.0 reagent was added to each well of the cell culture plates. The contents were covered from light and mixed on an orbital shaker at room temperature for 10 min. Luminescence was recorded by a Synergy H1 Microplate Reader (Biotek, Winooski, VT). Cells were assessed as a percentage of DMSO only treated control cells. Curves were plotted and IC50 values were calculated using the GraphPad Prism 8 program based on a sigmoidal dose-response equation (4 parameter).

[2] = system: RT112/84 (Bladder Cancer), FGFR3-TACC3 fusion; experiment: Cancer cell viability assay (Cell Titer-Glo), RT112/84; type: cell-based; conditions: Homo sapiens, RT112/84 cells, 72 hours
Source text: as §1, §2, §3, §4

FGFR1 = target: T1, FGFR1 (Homo sapiens, UniProt P11362); experiment: Kinase binding assay (kinase-tagged T7 phage, affinity beads, qPCR readout), FGFR1; conditions: FGFR binding data
T1 construct: made in house; host or cells: E. coli derived from BL21, infected with T7 phage
Summary of the method: (§5)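 Dissociation constants were measured by bead-capture competition at 0.9% DMSO, room temperature, 1 hour. qPCR of eluted kinase supplied the signal.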

FGFR3 = target: T2, FGFR3 (Homo sapiens, UniProt P22607); experiment: Kinase binding assay (kinase-tagged T7 phage, affinity beads, qPCR readout), FGFR3; conditions: FGFR binding data
T2 construct: made in house; host or cells: E. coli derived from BL21, infected with T7 phage
Summary of the method: as §5

FGFR2 = target: T3, FGFR2 (Homo sapiens, UniProt P21802); experiment: Kinase binding assay (kinase-tagged T7 phage, affinity beads, qPCR readout), FGFR2; conditions: FGFR binding data
T3 construct: made in house; host or cells: E. coli derived from BL21, infected with T7 phage
Summary of the method: as §5

[3] = system: UM-UC-14 (Bladder Cancer), FGFR3(S249C); experiment: Cancer cell viability assay (Cell Titer-Glo), UM-UC-14; type: cell-based; conditions: UMUC14, UM-UC-14 cells, 72 hours
Summary of the method: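 Cells seeded at 10,000/well in RPMI1640 with 10% FBS, then exposed 72 h at 37° C. to a 9-point 10-fold dilution series from 30 μM, in triplicate. Viability read as ATP luminescence (CellTiter-Glo 2.0) as percent of DMSO control; IC50 from 4-parameter sigmoidal fit.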

FGFR3 (V555M) = target: T4, FGFR3 (V555M) (Homo sapiens, UniProt P22607, V555M); experiment: Kinase binding assay (kinase-tagged T7 phage, affinity beads, qPCR readout), FGFR3 (V555M); conditions: FGFR binding data
T4 construct: made in house; host or cells: E. coli derived from BL21, infected with T7 phage
Summary of the method: as §5

T4 sequence (P22607 23-806 V555M): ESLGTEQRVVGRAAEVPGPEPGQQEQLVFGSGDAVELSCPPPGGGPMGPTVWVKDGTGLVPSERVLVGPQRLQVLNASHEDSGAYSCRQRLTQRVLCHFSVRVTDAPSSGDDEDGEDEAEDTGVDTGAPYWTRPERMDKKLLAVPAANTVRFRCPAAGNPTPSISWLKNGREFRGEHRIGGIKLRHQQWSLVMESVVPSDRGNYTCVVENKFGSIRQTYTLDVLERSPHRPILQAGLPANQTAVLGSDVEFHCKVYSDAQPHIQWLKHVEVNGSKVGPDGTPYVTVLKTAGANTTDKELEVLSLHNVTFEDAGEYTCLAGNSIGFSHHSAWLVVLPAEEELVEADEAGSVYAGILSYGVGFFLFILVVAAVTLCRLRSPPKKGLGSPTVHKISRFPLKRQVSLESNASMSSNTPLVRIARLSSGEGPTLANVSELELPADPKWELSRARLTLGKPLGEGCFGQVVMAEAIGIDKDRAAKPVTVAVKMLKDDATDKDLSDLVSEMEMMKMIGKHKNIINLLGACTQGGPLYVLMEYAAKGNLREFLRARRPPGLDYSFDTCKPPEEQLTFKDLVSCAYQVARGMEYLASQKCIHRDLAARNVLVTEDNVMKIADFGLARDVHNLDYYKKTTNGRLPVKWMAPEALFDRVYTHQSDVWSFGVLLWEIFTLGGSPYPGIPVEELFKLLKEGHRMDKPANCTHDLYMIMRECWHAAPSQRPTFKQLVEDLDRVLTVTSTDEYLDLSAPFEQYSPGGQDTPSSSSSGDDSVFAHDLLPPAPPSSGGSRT
T1 sequence (P11362 22-822): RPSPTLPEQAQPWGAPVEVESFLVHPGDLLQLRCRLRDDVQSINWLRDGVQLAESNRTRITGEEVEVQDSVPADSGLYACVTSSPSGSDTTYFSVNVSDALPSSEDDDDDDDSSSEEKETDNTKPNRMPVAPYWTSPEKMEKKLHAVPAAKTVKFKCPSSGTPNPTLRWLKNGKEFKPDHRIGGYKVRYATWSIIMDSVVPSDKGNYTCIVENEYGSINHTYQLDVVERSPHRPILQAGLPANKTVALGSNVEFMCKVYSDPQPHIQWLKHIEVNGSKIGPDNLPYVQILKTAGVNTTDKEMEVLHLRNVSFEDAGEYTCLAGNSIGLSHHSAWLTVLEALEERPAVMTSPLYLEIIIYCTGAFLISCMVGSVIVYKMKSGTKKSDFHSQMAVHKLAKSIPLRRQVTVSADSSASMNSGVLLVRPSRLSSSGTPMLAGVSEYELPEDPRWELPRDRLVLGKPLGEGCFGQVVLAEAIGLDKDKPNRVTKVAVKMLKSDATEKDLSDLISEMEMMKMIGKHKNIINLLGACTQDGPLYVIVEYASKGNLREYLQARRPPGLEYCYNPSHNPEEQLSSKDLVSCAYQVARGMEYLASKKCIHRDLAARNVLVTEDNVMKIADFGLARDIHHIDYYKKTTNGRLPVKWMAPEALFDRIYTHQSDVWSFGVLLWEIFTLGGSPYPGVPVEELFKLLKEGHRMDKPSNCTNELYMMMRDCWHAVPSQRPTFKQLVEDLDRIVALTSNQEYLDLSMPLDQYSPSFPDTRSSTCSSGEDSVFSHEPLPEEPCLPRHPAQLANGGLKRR
T2 sequence (P22607 23-806): as the sequence (P22607 23-806 V555M) above, with M533V counted along it
T3 sequence (P21802 22-821): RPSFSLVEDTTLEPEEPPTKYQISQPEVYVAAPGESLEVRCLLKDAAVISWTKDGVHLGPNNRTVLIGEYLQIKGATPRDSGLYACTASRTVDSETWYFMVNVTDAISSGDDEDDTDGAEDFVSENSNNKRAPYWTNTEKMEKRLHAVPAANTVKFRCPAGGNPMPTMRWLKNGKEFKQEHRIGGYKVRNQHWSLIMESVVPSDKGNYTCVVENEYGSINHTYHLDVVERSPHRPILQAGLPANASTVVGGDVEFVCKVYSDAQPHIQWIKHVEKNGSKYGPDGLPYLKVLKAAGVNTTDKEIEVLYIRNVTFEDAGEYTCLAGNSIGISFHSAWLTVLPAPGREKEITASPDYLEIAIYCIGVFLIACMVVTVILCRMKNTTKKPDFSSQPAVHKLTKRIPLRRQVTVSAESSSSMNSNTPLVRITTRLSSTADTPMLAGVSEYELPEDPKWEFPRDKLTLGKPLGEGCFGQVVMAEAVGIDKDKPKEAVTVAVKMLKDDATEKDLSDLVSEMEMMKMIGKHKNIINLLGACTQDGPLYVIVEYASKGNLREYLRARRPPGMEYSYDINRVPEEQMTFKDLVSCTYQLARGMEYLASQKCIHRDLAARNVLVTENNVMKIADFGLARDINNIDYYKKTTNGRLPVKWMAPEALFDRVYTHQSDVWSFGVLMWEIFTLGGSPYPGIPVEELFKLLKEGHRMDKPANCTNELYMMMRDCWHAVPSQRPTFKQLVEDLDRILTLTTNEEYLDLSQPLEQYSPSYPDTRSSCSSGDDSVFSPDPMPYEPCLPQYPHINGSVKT

IC50 [1] [nM] | IC50 [2] [nM] | Kd (FGFR1) [nM] | Kd (FGFR3) [nM] | Kd (FGFR2) [nM] | IC50 [3] [nM] | Kd (FGFR3 (V555M)) [nM] | Compound
250 to 1000 | > 1000 | 0.1 to 100 | 100 to 250 | 100 to 250 | > 1000 | 0.1 to 100 | C=CC(=O)Nc1ccc2c(ccn2-c2nc(Nc3cccc(OCCN4CCOCC4)c3)ncc2Cl)c1C [Example 7, N-[1-[5-chloro-2-[3-(2-morpholinoethoxy)anilino]pyrimidin-4-yl]-4-methyl-indol-5-yl]prop-2-enamide]
0.1 to 100 | 0.1 to 100 | 0.1 to 100 | 0.1 to 100 | 0.1 to 100 | 0.1 to 100 | 0.1 to 100 | C=CC(=O)Nc1ccc2c(c1)c(C)cn2-c1nc(Nc2cnn(C)c2)ncc1C [Example 8, N-[3-Methyl-1-[5-methyl-2-[(1-methylpyrazol-4-yl)amino]pyrimidin-4-yl]indol-5-yl]prop-2-enamide]
0.1 to 100 | 0.1 to 100 | 0.1 to 100 | 0.1 to 100 | 0.1 to 100 | 0.1 to 100 | 0.1 to 100 | C=CC(=O)Nc1ccc2c(c1)c(C)cn2-c1nc(Nc2cccc(OCCN3CCOCC3)c2)ncc1C [Example 9, N-[3-methyl-1-[5-methyl-2-[3-(2-morpholinoethoxy)anilino]pyrimidin-4-yl]indol-5-yl]prop-2-enamide]
0.1 to 100 | 0.1 to 100 | 100 to 250 | 0.1 to 100 | 100 to 250 | 0.1 to 100 | 0.1 to 100 | C=CC(=O)Nc1ccc2c(ccn2-c2nc(Nc3ccc(OCCN4CCOCC4)cc3)ncc2Cl)c1 [Example 10, N-[1-[5-chloro-2-[4-(2-morpholinoethoxy)anilino]pyrimidin-4-yl]indol-5-yl]prop-2-enamide]
0.1 to 100 | 0.1 to 100 | 0.1 to 100 | 0.1 to 100 | 0.1 to 100 | 0.1 to 100 | 0.1 to 100 | C=CC(=O)Nc1ccc2c(c1)c(C)cn2-c1nc(Nc2ccc(OCCN3CCOCC3)cc2)ncc1C [Example 19, N-[3-methyl-1-[5-methyl-2-[4-(2-morpholinoethoxy)anilino]pyrimidin-4-yl]indol-5-yl]prop-2-enamide]
0.1 to 100 | 0.1 to 100 | 0.1 to 100 | 0.1 to 100 | 0.1 to 100 | 0.1 to 100 | 0.1 to 100 | C=CC(=O)Nc1ccc2c(c1)c(C)cn2-c1nc(Nc2ccc(N3CCOCC3)c(F)c2)ncc1Cl [Example 22, N-[1-[5-chloro-2-(3-fluoro-4-morpholino-anilino)pyrimidin-4-yl]-3-methyl-indol-5-yl]prop-2-enamide]
0.1 to 100 | 0.1 to 100 | 0.1 to 100 | 0.1 to 100 | 0.1 to 100 | 0.1 to 100 | 0.1 to 100 | C=CC(=O)Nc1ccc2c(c1)c(C)cn2-c1nc(Nc2ccc(OC)c(OC)c2)ncc1Cl [Example 23, N-[1-[5-chloro-2-(3,4-dimethoxyanilino)pyrimidin-4-yl]-3-methyl-indol-5-yl]prop-2-enamide]
0.1 to 100 | 0.1 to 100 | 0.1 to 100 | 0.1 to 100 | 0.1 to 100 | 0.1 to 100 | 0.1 to 100 | C=CC(=O)Nc1ccc2c(c1)c(C)cn2-c1nc(Nc2ccc(N3CCOCC3)cc2)ncc1Cl [Example 24, N-[3-methyl-1-[5-chloro-2-(4-morpholinoanilino)pyrimidin-4-yl]indol-5-yl]prop-2-enamide]
0.1 to 100 | 0.1 to 100 | 0.1 to 100 | 0.1 to 100 | 0.1 to 100 | 0.1 to 100 | 0.1 to 100 | C=CC(=O)Nc1ccc2c(c1)c(C)cn2-c1nc(Nc2cnn(C)c2)ncc1Cl [Example 25, N-[1-[5-chloro-2-[(1-methylpyrazol-4-yl)amino]pyrimidin-4-yl]-3-methyl-indol-5-yl]prop-2-enamide]
0.1 to 100 | 100 to 250 | 0.1 to 100 | 0.1 to 100 | 0.1 to 100 | 0.1 to 100 | 0.1 to 100 | C=CC(=O)Nc1ccc2c(c1)c(C)cn2-c1nc(Nc2cn(C)nc2OC)ncc1Cl [Example 26, N-[1-[5-chloro-2-[(3-methoxy-1-methyl-pyrazol-4-yl)amino]pyrimidin-4-yl]-3-methyl-indol-5-yl]prop-2-enamide]
0.1 to 100 | 0.1 to 100 | 0.1 to 100 | 0.1 to 100 | 0.1 to 100 | 0.1 to 100 | 0.1 to 100 | C=CC(=O)Nc1ccc2c(-c3nc(Nc4ccc(N5CCOCC5)cc4)ncc3Cl)cn(C)c2c1 [Example 27, N-[3-[5-chloro-2-(4-morpholinoanilino)pyrimidin-4-yl]-1-methyl-indol-6-yl]prop-2-enamide]
0.1 to 100 | > 1000 | 0.1 to 100 | 0.1 to 100 | 0.1 to 100 | 0.1 to 100 | 0.1 to 100 | C=CC(=O)Nc1ccc2c(c1)c(C)cn2-c1nc(Nc2cn(C)cn2)ncc1Cl [Example 28, N-[1-[5-chloro-2-[(1-methylimidazol-4-yl)amino]pyrimidin-4-yl]-3-methyl-indol-5-yl]prop-2-enamide]
0.1 to 100 | 0.1 to 100 | 0.1 to 100 | 0.1 to 100 | 0.1 to 100 | 0.1 to 100 | 0.1 to 100 | C=CC(=O)Nc1ccc2c(-c3nc(Nc4cnn(C)c4)ncc3Cl)cn(C)c2c1 [Example 30, N-[3-[5-Chloro-2-[(1-methylpyrazol-4-yl)amino]pyrimidin-4-yl]-1-methyl-indol-6-yl]prop-2-enamide]
0.1 to 100 | 0.1 to 100 | 0.1 to 100 | 0.1 to 100 | 0.1 to 100 | 0.1 to 100 | 0.1 to 100 | C=CC(=O)Nc1ccc2c(c1)c(C)cn2-c1nc(Nc2cnn(C3CCN(C4COC4)CC3)c2)ncc1Cl [Example 34, N-[1-[5-Chloro-2-[[1-[1-(oxetan-3-yl)-4-piperidyl]pyrazol-4-yl]amino]pyrimidin-4-yl]-3-methyl-indol-5-yl]prop-2-enamide]
0.1 to 100 | 0.1 to 100 | 0.1 to 100 | 0.1 to 100 | 0.1 to 100 | 0.1 to 100 | 0.1 to 100 | C=CC(=O)Nc1ccc2c(c1)c(C)cn2-c1nc(Nc2cn(C)nc2C)ncc1Cl [Example 35, N-[1-[5-chloro-2-[(1,3-dimethylpyrazol-4-yl)amino]pyrimidin-4-yl]-3-methyl-indol-5-yl]prop-2-enamide]
0.1 to 100 | 0.1 to 100 | 0.1 to 100 | 0.1 to 100 | 0.1 to 100 | 0.1 to 100 | 0.1 to 100 | C=CC(=O)Nc1ccc2c(c1)c(C)cn2-c1nc(Nc2cnn(C)c2C)ncc1Cl [Example 40, N-[1-[5-chloro-2-[(1,5-dimethylpyrazol-4-yl)amino]pyrimidin-4-yl]-3-methyl-indol-5-yl]prop-2-enamide]
0.1 to 100 | 0.1 to 100 | 0.1 to 100 | 0.1 to 100 | 0.1 to 100 | 0.1 to 100 | 0.1 to 100 | C=CC(=O)Nc1ccc2c(c1)c(C)cn2-c1nc(Nc2cnn(C3CCN(CC)CC3)c2)ncc1Cl [Example 42, N-[1-[5-chloro-2-[[1-(1-ethyl-4-piperidyl)pyrazol-4-yl]amino]-pyrimidin-4-yl]-3-methyl-indol-5-yl]prop-2-enamide]
0.1 to 100 | 0.1 to 100 | 0.1 to 100 | 0.1 to 100 | 0.1 to 100 | 0.1 to 100 | 0.1 to 100 | C=CC(=O)Nc1ccc2c(c1)c(C)cn2-c1nc(Nc2ccnn2C)ncc1Cl [Example 55, N-[1-[5-chloro-2-[(2-methylpyrazol-3-yl)amino]pyrimidin-4-yl]-3-methyl-indol-5-yl]prop-2-enamide]
